Test results taken from ChEMBL document CHEMBL1201862, “PubChem BioAssay data set” (2004).
Activity calls are given as the source filed them.

Key:
[1] = target: T1, RNA-binding protein pos-1 (Caenorhabditis elegans, UniProt G5EF15); assay: inhibitors of POS-1/mex-3 RNA binding, dose response, biochemical, fluorescence polarization (AID 1964);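 further: purified POS-1 fused to maltose binding protein made in E. coli; potency of compounds blocking POS-1 binding to fluorescent RNA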
T1 sequence (G5EF15 whole entry): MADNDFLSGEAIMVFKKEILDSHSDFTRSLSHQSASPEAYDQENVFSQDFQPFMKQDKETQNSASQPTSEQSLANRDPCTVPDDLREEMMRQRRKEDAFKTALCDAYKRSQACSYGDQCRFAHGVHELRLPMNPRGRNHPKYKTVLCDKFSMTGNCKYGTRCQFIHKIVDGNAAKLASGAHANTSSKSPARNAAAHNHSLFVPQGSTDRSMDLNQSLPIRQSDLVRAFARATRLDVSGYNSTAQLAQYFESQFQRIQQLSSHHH

[2] = target: T2, Zinc finger protein mex-5 (Caenorhabditis elegans, UniProt Q9XUB2); assay: MEX-5/TCR-2 RNA interaction inhibitors, dose response, biochemical, C. elegans, fluorescence polarization (AID 1960)
T2 sequence (Q9XUB2 whole entry): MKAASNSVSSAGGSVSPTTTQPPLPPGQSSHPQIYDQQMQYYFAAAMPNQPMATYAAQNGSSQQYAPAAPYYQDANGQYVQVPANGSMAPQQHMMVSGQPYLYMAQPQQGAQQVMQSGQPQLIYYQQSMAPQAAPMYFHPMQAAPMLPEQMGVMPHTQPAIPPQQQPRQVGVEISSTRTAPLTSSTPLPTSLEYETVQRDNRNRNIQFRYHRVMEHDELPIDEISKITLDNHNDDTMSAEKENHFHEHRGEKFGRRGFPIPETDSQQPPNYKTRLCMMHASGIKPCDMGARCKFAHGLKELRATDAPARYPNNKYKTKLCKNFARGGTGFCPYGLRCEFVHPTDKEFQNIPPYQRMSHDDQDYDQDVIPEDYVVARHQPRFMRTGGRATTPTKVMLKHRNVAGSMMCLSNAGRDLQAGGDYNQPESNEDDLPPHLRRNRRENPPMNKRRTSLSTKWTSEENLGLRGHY

[3] = target: Alkaline phosphatase, placental type (Homo sapiens, UniProt P05187); assay: PLAP enzyme inhibitors, confirmation, biochemical, luminescence (AID 1512); format: functional
Alkaline phosphatase, placental type, sequence (P05187 whole entry): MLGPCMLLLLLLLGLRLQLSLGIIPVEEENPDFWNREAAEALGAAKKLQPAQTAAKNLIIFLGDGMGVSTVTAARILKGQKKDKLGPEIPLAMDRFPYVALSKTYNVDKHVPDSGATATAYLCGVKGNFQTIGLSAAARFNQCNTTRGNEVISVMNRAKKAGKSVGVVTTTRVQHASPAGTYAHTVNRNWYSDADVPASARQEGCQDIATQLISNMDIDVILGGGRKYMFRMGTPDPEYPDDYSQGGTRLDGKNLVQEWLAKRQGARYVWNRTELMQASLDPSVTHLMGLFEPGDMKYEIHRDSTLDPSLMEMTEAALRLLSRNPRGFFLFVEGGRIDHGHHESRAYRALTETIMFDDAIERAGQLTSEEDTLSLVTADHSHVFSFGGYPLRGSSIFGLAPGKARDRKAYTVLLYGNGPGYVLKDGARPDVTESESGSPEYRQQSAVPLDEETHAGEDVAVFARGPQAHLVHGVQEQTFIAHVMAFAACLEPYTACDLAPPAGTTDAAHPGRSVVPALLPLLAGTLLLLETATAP

Vero [4] = assay: Vero E6 cell cytotoxicity, SAR follow-up, cytotoxicity control for West Nile virus antiviral project, synthesized analogs (AID 2244); format: functional; details: Chlorocebus sabaeus
Vero [5] = assay: West Nile virus CPE inhibition, SAR follow-up, cell-based, synthesized analogs (AID 2238); format: functional; details: Chlorocebus sabaeus
SUMO-activating enzyme [6] = target: T3, SUMO-activating enzyme (Homo sapiens, UniProt Q9UBT2); assay: SUMOylation inhibitor hit validation, confirmation, SUMOylation inhibitor project, biochemical, AlphaScreen (AID 2018); format: functional
T3 sequence (Q9UBE0 whole entry): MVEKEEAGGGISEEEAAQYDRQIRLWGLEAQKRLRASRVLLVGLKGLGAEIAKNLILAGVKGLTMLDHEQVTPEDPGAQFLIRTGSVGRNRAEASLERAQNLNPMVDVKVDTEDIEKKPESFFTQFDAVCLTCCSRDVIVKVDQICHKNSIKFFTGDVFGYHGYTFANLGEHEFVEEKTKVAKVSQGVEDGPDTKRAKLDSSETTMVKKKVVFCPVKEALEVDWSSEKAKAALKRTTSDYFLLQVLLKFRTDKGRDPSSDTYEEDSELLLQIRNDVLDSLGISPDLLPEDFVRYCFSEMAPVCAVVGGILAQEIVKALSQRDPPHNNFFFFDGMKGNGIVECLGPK
T3 sequence (Q9UBT2 whole entry): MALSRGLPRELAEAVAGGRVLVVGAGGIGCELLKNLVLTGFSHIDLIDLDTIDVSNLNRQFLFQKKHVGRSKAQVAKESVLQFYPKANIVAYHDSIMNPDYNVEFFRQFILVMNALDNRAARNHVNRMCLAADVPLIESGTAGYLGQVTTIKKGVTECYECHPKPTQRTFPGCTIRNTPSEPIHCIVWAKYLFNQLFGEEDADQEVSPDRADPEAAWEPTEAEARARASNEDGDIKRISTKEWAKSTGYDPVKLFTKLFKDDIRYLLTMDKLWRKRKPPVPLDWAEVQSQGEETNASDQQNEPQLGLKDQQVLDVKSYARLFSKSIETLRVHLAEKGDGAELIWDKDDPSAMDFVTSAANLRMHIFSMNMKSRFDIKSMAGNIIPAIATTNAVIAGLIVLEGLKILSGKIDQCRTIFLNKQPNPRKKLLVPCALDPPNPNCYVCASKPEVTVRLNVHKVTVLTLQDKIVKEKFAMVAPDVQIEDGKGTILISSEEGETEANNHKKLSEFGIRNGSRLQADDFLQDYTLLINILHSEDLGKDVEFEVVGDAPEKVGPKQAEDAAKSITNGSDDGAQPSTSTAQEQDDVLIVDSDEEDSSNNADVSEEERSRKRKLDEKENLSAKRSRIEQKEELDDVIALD

[7] = target: Tyrosine-protein phosphatase non-receptor type 7 (Homo sapiens, UniProt P35236); assay: redox-dependent HePTP inhibition, mechanism study, biochemical, fluorescence (AID 2068); format: functional
Tyrosine-protein phosphatase non-receptor type 7, sequence (P35236 whole entry): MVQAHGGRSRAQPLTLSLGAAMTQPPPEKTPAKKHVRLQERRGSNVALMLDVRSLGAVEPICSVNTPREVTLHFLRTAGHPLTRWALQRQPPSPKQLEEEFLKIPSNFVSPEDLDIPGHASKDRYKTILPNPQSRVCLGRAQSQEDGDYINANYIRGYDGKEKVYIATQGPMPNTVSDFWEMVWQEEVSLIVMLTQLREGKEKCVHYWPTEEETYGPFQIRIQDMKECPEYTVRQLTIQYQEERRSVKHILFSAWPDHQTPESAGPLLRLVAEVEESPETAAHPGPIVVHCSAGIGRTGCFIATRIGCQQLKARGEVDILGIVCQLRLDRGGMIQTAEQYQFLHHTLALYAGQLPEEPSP

Bcl-2-like protein 10 = target: T4, Bcl-2-like protein 10 (Homo sapiens, UniProt Q9HD36); assay: displacers of TR3 peptide from Bcl-B, primary screen, selectivity assay for Bfl-1 inhibitor project, biochemical, fluorescence polarization, FITC-TR3 peptide (AID 748);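 further: fluorescence polarization from a fluorescein-labelled TR3 peptide binding purified Bcl-B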
T4 sequence (Q9HD36 whole entry): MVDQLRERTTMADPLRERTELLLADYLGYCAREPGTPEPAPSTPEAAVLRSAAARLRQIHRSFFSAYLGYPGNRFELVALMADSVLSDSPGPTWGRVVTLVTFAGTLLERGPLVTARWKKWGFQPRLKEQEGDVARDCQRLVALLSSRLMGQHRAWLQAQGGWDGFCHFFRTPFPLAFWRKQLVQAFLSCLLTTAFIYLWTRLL

[8] = THP-1 cell cytotoxicity, dose response, cytotoxicity control for Vif-APOBEC3G degradation inhibitor project, THP-1 cells (AID 1117359); format: functional; details: Human immunodeficiency virus 1, THP-1
[9] = Vero cell cytotoxicity, dose response, cytotoxicity control for Vif-APOBEC3G degradation inhibitor project, Vero cells (AID 1117358); format: functional; details: Human immunodeficiency virus 1, Vero
SUMO-activating enzyme [10] = target: T3, SUMO-activating enzyme; assay: inhibitors of in vitro SUMOylation cascade, primary screen, biochemical, HTRF, uHTS (AID 2006); format: protein-complex assay
[11] = target: T5, Replicative DNA helicase DnaB (Mycobacterium tuberculosis, UniProt P9WMR3); assay: DnaB intein splicing inhibitors, dose response, biochemical, cell-free fluorescence (AID 449749); format: functional
T5 sequence (P9WMR3 whole entry): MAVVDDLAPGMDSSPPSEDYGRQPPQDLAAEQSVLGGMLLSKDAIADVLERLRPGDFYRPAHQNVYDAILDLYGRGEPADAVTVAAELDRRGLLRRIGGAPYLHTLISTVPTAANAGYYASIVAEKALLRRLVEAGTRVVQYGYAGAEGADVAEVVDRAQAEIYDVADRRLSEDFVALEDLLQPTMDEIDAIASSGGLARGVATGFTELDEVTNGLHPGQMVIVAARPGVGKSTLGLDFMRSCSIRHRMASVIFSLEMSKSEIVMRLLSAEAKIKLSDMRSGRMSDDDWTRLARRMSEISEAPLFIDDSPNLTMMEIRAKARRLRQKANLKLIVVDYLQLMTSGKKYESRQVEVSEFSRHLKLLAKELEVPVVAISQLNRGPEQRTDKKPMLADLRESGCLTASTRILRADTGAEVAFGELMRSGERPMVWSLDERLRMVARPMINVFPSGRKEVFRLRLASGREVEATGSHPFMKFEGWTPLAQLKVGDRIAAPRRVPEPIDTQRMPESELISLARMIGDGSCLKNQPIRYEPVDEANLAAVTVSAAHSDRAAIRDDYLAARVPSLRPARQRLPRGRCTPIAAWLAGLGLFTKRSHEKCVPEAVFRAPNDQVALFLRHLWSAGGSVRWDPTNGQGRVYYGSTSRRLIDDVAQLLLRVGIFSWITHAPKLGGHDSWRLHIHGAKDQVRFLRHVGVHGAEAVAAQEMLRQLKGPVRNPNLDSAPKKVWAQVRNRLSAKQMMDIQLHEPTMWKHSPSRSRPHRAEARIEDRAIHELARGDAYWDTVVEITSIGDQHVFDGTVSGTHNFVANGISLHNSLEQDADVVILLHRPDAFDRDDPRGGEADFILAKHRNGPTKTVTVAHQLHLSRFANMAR

Protein RecA = target: T6, Protein RecA (Mycobacterium tuberculosis, UniProt P9WHJ3); assay: Fluorescence Cell-Free Homogeneous Dose Retest to Identify Inhibitors of RecA-Intein Splicing Activity. [Related pubchem assays (depositor defined):AID2097, AID2223, AID489010, AID492950]; format: functional
T6 sequence (P9WHJ3 whole entry): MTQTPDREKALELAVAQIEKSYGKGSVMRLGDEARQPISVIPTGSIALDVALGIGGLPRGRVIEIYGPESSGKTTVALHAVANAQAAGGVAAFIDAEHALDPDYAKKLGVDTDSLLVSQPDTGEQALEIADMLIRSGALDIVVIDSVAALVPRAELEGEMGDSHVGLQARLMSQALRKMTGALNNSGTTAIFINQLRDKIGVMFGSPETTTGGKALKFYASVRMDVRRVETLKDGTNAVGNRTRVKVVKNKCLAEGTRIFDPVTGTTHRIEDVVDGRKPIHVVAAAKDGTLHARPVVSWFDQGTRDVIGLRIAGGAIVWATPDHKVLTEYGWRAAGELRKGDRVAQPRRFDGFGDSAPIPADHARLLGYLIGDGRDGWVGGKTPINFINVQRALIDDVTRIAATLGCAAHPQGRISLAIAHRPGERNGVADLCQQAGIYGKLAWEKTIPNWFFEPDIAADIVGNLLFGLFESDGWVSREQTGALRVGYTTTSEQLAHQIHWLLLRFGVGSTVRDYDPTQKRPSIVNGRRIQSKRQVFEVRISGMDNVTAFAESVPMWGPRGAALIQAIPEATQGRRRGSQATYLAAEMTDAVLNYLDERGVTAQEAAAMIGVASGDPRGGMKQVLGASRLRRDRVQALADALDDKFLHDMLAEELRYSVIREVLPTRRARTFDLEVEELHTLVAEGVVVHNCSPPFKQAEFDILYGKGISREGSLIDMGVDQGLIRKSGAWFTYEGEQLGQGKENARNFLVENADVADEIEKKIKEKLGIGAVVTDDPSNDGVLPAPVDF

[12] = Intein inhibitors as potential Tuberculosis drugs, a cytotoxicity screen. [Related pubchem assays (depositor defined):AID2221, AID2223, AID434968, AID435010, AID449749, AID449750, AID489010]; format: functional

Which EC50 [1] does the source give for `COCCNC(=O)CCC(=O)NNc1nc2ccccc2c2nc(C)nn12` here?
Its EC50 is 118 µM (active).

And the EC50 [2]?
Its EC50 is 1.21 µM (active).

And the IC50 [3]?
Its IC50 is > 100 µM (inactive).

Which results are given for `COc1ccc(-c2csc(N(CCCN(C)C)C(=O)c3ccccc3C)n2)cc1`?
CC50 (Vero [4]): 63.2 µM (active); IC50 (Vero [5]): 76.6 µM (active)

What does the source list for `O=C(Nc1ccccc1)c1ccc2nc(-c3ccco3)c(-c3ccco3)nc2c1`?
IC50 (SUMO-activating enzyme [6]): 1.54 µM (active); IC50 [7]: 2.51 µM (active); IC50 (Bcl-2-like protein 10): > 100 µM (inactive); CC50 [8]: > 40 µM (active); CC50 [9]: > 40 µM (active); IC50 (SUMO-activating enzyme [10]): 20.7 µM (active)

For `O=C(CCl)N1c2ccccc2OCC1c1ccccc1` (centres undefined), which AC50 [11] is on record?
The AC50 was 2.58 µM (active).

And the EC50 (Protein RecA)?
Its EC50 is 0.606 µM (active).

And the CC50 [12]?
Its CC50 is 6.48 µM (active).
